Assay results: PubChem BioAssay (NCI)
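Where inhibition never reached the appropriate level, the endpoint shown equals the highest concentration tested. Otherwise, values were interpolated linearly from a five-concentration, 48-hour dose response in 96-well plates. Definition used: TGI = concentration required for complete inhibition of growth.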

Assays:
Test in all cases: NCI anticancer screen, dose series, 48 h
K-562 leukemia = system: K-562 leukemia
OVCAR-5 ovarian = system: OVCAR-5 ovarian
SK-MEL-5 melanoma = system: SK-MEL-5 melanoma
OVCAR-4 ovarian = system: OVCAR-4 ovarian
SK-MEL-2 melanoma = system: SK-MEL-2 melanoma
IGROV1 ovarian = system: IGROV1 ovarian
HT29 colon = system: HT29 colon
OVCAR-3 ovarian = system: OVCAR-3 ovarian
OVCAR-8 ovarian = system: OVCAR-8 ovarian
M14 melanoma = system: M14 melanoma
DMS 114 small cell lung = system: DMS 114 small cell lung
NCI-H23 lung = system: NCI-H23 lung
SK-MEL-28 melanoma = system: SK-MEL-28 melanoma
M19-MEL melanoma = system: M19-MEL melanoma
MALME-3M melanoma = system: MALME-3M melanoma
SK-OV-3 ovarian = system: SK-OV-3 ovarian
SF-295 CNS = system: SF-295 CNS
SNB-78 CNS = system: SNB-78 CNS
HOP-18 NSCLC = system: HOP-18 NSCLC
CAKI-1 renal = system: CAKI-1 renal
UO-31 renal = system: UO-31 renal
RXF 393 renal = system: RXF 393 renal
KM12 colon = system: KM12 colon
HOP-62 NSCLC = system: HOP-62 NSCLC
EKVX NSCLC = system: EKVX NSCLC
TK-10 renal = system: TK-10 renal
DLD-1 colon = system: DLD-1 colon
HL-60(TB) leukemia = system: HL-60(TB) leukemia
XF 498 CNS = system: XF 498 CNS
COLO 205 colon = system: COLO 205 colon
HCC-2998 colon = system: HCC-2998 colon
786-0 renal = system: 786-0 renal
SF-539 CNS = system: SF-539 CNS
U251 CNS = system: U251 CNS
RPMI-8226 leukemia = system: RPMI-8226 leukemia
HCT-15 colon = system: HCT-15 colon
SNB-19 CNS = system: SNB-19 CNS
MOLT-4 leukemia = system: MOLT-4 leukemia
HCT-116 colon = system: HCT-116 colon
LXFL 529 NSCLC = system: LXFL 529 NSCLC
SF-268 CNS = system: SF-268 CNS
SW-620 colon = system: SW-620 colon
NCI-H522 lung = system: NCI-H522 lung
UACC-62 melanoma = system: UACC-62 melanoma
KM20L2 colon = system: KM20L2 colon
ACHN renal = system: ACHN renal
HOP-92 NSCLC = system: HOP-92 NSCLC
CCRF-CEM leukemia = system: CCRF-CEM leukemia
A549 NSCLC = system: A549 NSCLC
LOX IMVI melanoma = system: LOX IMVI melanoma
NCI-H460 lung = system: NCI-H460 lung
DMS 273 small cell lung = system: DMS 273 small cell lung
SN12C renal = system: SN12C renal
SR leukemia = system: SR leukemia
SNB-75 CNS = system: SNB-75 CNS
A498 renal = system: A498 renal
NCI-H226 lung = system: NCI-H226 lung
UACC-257 melanoma = system: UACC-257 melanoma

## OC[C@@H]1CC#C/C=C\C#CC[C@@H]1CO
K-562 leukemia
  TGI: > 100 µM
OVCAR-5 ovarian
  TGI: > 100 µM
SK-MEL-5 melanoma
  TGI: > 100 µM
OVCAR-4 ovarian
  TGI: > 100 µM
SK-MEL-2 melanoma
  TGI: > 100 µM
IGROV1 ovarian
  TGI: > 100 µM
HT29 colon
  TGI: > 100 µM
OVCAR-3 ovarian
  TGI: > 100 µM
OVCAR-8 ovarian
  TGI: > 100 µM
M14 melanoma
  TGI: > 100 µM
DMS 114 small cell lung
  TGI: > 100 µM
NCI-H23 lung
  TGI: > 100 µM
SK-MEL-28 melanoma
  TGI: > 100 µM
M19-MEL melanoma
  TGI: > 100 µM
MALME-3M melanoma
  TGI: > 100 µM
SK-OV-3 ovarian
  TGI: > 100 µM
SF-295 CNS
  TGI: > 100 µM
SNB-78 CNS
  TGI: > 100 µM
HOP-18 NSCLC
  TGI: > 100 µM
CAKI-1 renal
  TGI: > 100 µM
UO-31 renal
  TGI: > 100 µM
RXF 393 renal
  TGI: > 100 µM
KM12 colon
  TGI: > 100 µM
HOP-62 NSCLC
  TGI: > 100 µM
EKVX NSCLC
  TGI: > 100 µM
TK-10 renal
  TGI: > 100 µM
DLD-1 colon
  TGI: > 100 µM
HL-60(TB) leukemia
  TGI: > 100 µM
XF 498 CNS
  TGI: 6.99 µM
COLO 205 colon
  TGI: > 100 µM
HCC-2998 colon
  TGI: > 100 µM
786-0 renal
  TGI: > 100 µM
SF-539 CNS
  TGI: > 100 µM
U251 CNS
  TGI: > 100 µM
RPMI-8226 leukemia
  TGI: > 100 µM
HCT-15 colon
  TGI: > 100 µM
SNB-19 CNS
  TGI: > 100 µM
MOLT-4 leukemia
  TGI: > 100 µM
HCT-116 colon
  TGI: > 100 µM

## Cn1nc(-c2ccccc2)c(C(=O)/C=C/c2ccc(F)cc2)c(N2CCCC2)c1=O
K-562 leukemia
  TGI: 38.5 µM
SK-MEL-5 melanoma
  TGI: 26.9 µM
LXFL 529 NSCLC
  TGI: 32.1 µM
IGROV1 ovarian
  TGI: 50.5 µM
HT29 colon
  TGI: 15.3 µM
SF-268 CNS
  TGI: 51 µM
SW-620 colon
  TGI: 37.1 µM
NCI-H522 lung
  TGI: 20.7 µM
UACC-62 melanoma
  TGI: 38.4 µM
OVCAR-8 ovarian
  TGI: > 100 µM
M14 melanoma
  TGI: 37.4 µM
DMS 114 small cell lung
  TGI: 29.1 µM
NCI-H23 lung
  TGI: 32.7 µM
SK-MEL-28 melanoma
  TGI: 32.8 µM
M19-MEL melanoma
  TGI: 33.8 µM
SK-OV-3 ovarian
  TGI: 59.1 µM
KM20L2 colon
  TGI: 28.3 µM
HOP-18 NSCLC
  TGI: 31.8 µM
ACHN renal
  TGI: 62.8 µM
CAKI-1 renal
  TGI: 61.9 µM
HOP-92 NSCLC
  TGI: 36.3 µM
RXF 393 renal
  TGI: 22.1 µM
CCRF-CEM leukemia
  TGI: 27.8 µM
A549 NSCLC
  TGI: > 100 µM
EKVX NSCLC
  TGI: 52.9 µM
TK-10 renal
  TGI: 71.4 µM
LOX IMVI melanoma
  TGI: > 100 µM
DLD-1 colon
  TGI: 39.4 µM
HL-60(TB) leukemia
  TGI: 23.2 µM
XF 498 CNS
  TGI: 54.2 µM
NCI-H460 lung
  TGI: 91.7 µM
DMS 273 small cell lung
  TGI: 83.3 µM
COLO 205 colon
  TGI: 32.1 µM
786-0 renal
  TGI: 31.2 µM
SF-539 CNS
  TGI: 28 µM
U251 CNS
  TGI: 29.2 µM
RPMI-8226 leukemia
  TGI: 30.5 µM
HCT-15 colon
  TGI: 70 µM
SN12C renal
  TGI: > 100 µM
SNB-19 CNS
  TGI: 48.6 µM
MOLT-4 leukemia
  TGI: 31.3 µM
HCT-116 colon
  TGI: 20.5 µM

## C[O+]=c1cccc2ssnc1-2
K-562 leukemia
  TGI: 91.6 µM
OVCAR-5 ovarian
  TGI: > 100 µM
SK-MEL-5 melanoma
  TGI: 58.7 µM
LXFL 529 NSCLC
  TGI: > 100 µM
OVCAR-4 ovarian
  TGI: > 100 µM
SK-MEL-2 melanoma
  TGI: > 100 µM
IGROV1 ovarian
  TGI: > 100 µM
HT29 colon
  TGI: > 100 µM
SF-268 CNS
  TGI: > 100 µM
SW-620 colon
  TGI: 70.6 µM
NCI-H522 lung
  TGI: > 10 µM
UACC-62 melanoma
  TGI: 58.8 µM
OVCAR-3 ovarian
  TGI: > 100 µM
SR leukemia
  TGI: 64.8 µM
OVCAR-8 ovarian
  TGI: 74.1 µM
M14 melanoma
  TGI: > 100 µM
NCI-H23 lung
  TGI: > 100 µM
SK-MEL-28 melanoma
  TGI: > 100 µM
M19-MEL melanoma
  TGI: 69.3 µM
MALME-3M melanoma
  TGI: > 100 µM
SK-OV-3 ovarian
  TGI: > 100 µM
SF-295 CNS
  TGI: > 100 µM
SNB-78 CNS
  TGI: > 100 µM
KM20L2 colon
  TGI: > 100 µM
HOP-18 NSCLC
  TGI: > 100 µM
ACHN renal
  TGI: > 100 µM
CAKI-1 renal
  TGI: > 100 µM
UO-31 renal
  TGI: 98 µM
SNB-75 CNS
  TGI: > 100 µM
RXF 393 renal
  TGI: > 100 µM
KM12 colon
  TGI: > 100 µM
A498 renal
  TGI: > 100 µM
HOP-62 NSCLC
  TGI: > 100 µM
CCRF-CEM leukemia
  TGI: > 10 µM
NCI-H226 lung
  TGI: > 100 µM
A549 NSCLC
  TGI: > 100 µM
EKVX NSCLC
  TGI: > 100 µM
TK-10 renal
  TGI: > 100 µM
LOX IMVI melanoma
  TGI: > 100 µM
DLD-1 colon
  TGI: > 100 µM
HL-60(TB) leukemia
  TGI: 69.6 µM
XF 498 CNS
  TGI: 43.1 µM
NCI-H460 lung
  TGI: > 100 µM
DMS 273 small cell lung
  TGI: > 100 µM
COLO 205 colon
  TGI: > 100 µM
HCC-2998 colon
  TGI: > 100 µM
UACC-257 melanoma
  TGI: 88.5 µM
786-0 renal
  TGI: > 100 µM
SF-539 CNS
  TGI: > 100 µM
U251 CNS
  TGI: > 10 µM
HCT-15 colon
  TGI: > 100 µM
SN12C renal
  TGI: > 100 µM
SNB-19 CNS
  TGI: > 100 µM
MOLT-4 leukemia
  TGI: 96.1 µM
HCT-116 colon
  TGI: > 100 µM
